Assay results taken from ChEMBL document CHEMBL4145625 (J Med Chem, 2018).

What was measured:
[1] = biological target: Phosphatidylinositol 4,5-bisphosphate 3-kinase catalytic subunit gamma isoform (Homo sapiens, UniProt P48736); experiment: Inhibition of PI3Kgamma (unknown origin) using PIP2 as substrate by ADP-Glo assay
PC-3 = experiment: cells; type: functional, cell-based; settings: Homo sapiens, PC-3, 96 h
Description: Cytotoxicity against human PC3 cells after 96 hrs by MTT assay

[2] = biological target: Phosphatidylinositol 4,5-bisphosphate 3-kinase catalytic subunit beta isoform (Homo sapiens, UniProt P42338); experiment: Inhibition of PI3Kbeta (unknown origin) using PIP2 as substrate by ADP-Glo assay
Cytochrome P450 2C9 = Cytochrome P450 2C9 (Homo sapiens, UniProt P11712)
Sequence of Cytochrome P450 2C9 (P11712 whole entry): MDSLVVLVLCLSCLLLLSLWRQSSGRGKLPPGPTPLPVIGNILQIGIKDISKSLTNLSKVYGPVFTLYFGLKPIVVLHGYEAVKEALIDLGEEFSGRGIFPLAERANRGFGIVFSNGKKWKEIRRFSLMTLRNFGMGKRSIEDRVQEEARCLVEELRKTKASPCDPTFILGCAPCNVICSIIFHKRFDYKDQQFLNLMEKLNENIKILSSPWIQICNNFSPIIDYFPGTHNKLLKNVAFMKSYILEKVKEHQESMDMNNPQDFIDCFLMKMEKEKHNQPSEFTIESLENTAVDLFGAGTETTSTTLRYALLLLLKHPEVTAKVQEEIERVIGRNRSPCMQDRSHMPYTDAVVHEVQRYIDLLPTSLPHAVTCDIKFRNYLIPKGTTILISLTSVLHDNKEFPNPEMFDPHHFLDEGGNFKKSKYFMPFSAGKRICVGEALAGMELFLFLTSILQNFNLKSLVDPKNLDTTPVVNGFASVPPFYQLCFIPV
Description: Inhibition of CYP2C9 in human liver microsomes assessed as reduction in 4-Hydroxydiclofenac formation using diclofenac as substrate after 10 to 20 mins in presence of NADPH by LC-MS/MS analysis

[3] = biological target: Voltage-gated inwardly rectifying potassium channel KCNH2 (Homo sapiens, UniProt Q12809)
Sequence of Voltage-gated inwardly rectifying potassium channel KCNH2 (Q12809 whole entry): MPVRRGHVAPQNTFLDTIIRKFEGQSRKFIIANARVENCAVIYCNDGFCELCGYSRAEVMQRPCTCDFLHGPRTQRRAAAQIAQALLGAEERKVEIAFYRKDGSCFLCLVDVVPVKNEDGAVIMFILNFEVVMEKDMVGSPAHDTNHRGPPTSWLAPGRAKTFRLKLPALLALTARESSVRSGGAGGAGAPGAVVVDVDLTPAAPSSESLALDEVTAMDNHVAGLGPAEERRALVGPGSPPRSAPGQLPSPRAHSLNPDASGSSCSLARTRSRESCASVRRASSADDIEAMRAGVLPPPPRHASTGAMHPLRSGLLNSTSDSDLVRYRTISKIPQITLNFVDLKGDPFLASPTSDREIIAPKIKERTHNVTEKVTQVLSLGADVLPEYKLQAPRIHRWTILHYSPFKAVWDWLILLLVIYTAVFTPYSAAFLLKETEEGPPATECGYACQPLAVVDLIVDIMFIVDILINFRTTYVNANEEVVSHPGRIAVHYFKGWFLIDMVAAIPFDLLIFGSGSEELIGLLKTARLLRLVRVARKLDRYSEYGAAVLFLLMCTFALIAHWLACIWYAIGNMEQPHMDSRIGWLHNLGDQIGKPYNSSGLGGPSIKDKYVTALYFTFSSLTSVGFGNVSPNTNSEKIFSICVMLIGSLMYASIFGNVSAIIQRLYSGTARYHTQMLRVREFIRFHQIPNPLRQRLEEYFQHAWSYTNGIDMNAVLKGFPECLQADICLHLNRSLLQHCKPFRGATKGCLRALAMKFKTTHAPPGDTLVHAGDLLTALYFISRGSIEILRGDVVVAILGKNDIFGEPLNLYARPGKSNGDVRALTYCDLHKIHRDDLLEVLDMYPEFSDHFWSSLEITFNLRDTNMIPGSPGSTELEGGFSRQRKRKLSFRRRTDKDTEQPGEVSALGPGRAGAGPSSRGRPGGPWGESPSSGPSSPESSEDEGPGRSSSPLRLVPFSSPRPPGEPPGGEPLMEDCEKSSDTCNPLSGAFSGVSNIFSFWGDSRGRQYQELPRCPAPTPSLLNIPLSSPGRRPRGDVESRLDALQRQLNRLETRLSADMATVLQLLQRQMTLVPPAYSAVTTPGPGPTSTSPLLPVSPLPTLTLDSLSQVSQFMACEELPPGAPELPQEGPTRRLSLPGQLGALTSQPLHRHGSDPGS
Description: Inhibition of human ERG expressed in CHO cell membranes by patch clamp method

MDA-MB-231 = experiment: cells; type: functional, cell-based; settings: Homo sapiens, MDA-MB-231, 96 h
Description: Cytotoxicity against human MDA-MB-231 cells after 96 hrs by MTT assay

Cytochrome P450 2D6 = Cytochrome P450 2D6 (Homo sapiens, UniProt P10635)
Sequence of Cytochrome P450 2D6 (P10635 whole entry): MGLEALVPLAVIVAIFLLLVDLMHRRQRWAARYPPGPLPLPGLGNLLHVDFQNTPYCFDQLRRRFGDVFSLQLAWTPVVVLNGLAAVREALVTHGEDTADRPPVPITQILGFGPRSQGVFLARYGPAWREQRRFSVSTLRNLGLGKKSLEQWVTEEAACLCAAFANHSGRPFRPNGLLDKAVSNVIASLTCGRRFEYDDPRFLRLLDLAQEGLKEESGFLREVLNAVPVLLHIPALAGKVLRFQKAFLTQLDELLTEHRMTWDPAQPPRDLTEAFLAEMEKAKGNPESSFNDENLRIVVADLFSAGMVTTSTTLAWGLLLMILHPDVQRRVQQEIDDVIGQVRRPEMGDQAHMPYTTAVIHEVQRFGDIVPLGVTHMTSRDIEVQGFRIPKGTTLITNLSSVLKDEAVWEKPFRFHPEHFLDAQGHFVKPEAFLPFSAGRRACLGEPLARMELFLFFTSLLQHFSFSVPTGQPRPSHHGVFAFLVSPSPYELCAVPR
Description: Inhibition of CYP2D6 in human liver microsomes assessed as reduction in dextrophan formation using detromethorphann as substrate after 10 to 20 mins in presence of NADPH by LC-MS/MS analysis

in vivo [4] = settings: ICR, mouse, plasma, iv, 3 mg/kg
in vivo [5] = settings: ICR, mouse, plasma, iv, 3 mg/kg; remark: listed apart in the source
in vivo [6] = settings: ICR, mouse, plasma, po, 30 mg/kg
in vivo [7] = settings: ICR, mouse, plasma, iv, 3 mg/kg; remark: listed apart in the source
[8] = biological target: Serine/threonine-protein kinase mTOR (Homo sapiens, UniProt P42345); experiment: Inhibition of mTOR (unknown origin) using ULight-4E-BP1 peptide as substrate after 30 mins by Lance Ultra assay
Cytochrome P450 1A2 = biological target: T1, Cytochrome P450 1A2 (Homo sapiens, UniProt P05177)
T1 sequence (P05177 whole entry): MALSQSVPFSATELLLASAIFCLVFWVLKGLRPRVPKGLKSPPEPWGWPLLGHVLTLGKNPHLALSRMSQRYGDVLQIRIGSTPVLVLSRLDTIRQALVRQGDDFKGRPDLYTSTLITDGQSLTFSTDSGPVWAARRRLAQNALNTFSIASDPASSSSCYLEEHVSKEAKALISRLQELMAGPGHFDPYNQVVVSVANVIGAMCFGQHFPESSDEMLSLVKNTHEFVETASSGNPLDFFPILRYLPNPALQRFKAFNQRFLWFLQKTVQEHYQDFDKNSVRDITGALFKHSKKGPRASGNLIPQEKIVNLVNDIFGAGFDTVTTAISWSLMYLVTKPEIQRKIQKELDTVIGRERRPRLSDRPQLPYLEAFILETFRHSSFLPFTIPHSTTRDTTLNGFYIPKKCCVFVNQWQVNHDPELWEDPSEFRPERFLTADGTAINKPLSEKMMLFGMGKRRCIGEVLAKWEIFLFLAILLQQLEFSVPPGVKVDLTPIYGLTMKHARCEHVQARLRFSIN
Description: Inhibition of CYP1A2 in human liver microsomes assessed as reduction in acetaminophen formation using phenacetin as substrate after 10 to 20 mins in presence of NADPH by LC-MS/MS analysis

Cytochrome P450 3A4 = Cytochrome P450 3A4 (Homo sapiens, UniProt P08684)
Sequence of Cytochrome P450 3A4 (P08684 whole entry): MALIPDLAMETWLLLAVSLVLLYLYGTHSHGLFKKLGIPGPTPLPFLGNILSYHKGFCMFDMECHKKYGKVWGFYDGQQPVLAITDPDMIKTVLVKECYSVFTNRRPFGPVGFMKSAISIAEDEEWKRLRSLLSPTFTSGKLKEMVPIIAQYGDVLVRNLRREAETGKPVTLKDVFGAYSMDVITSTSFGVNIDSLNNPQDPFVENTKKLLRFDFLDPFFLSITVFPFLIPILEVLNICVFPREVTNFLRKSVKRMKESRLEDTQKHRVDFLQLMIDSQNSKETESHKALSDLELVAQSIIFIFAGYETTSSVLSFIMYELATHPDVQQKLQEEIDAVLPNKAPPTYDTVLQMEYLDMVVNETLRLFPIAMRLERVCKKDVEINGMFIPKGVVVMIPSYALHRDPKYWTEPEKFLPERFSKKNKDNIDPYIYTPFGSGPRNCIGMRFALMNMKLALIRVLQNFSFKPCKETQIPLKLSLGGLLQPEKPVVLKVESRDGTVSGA
Description: Inhibition of CYP3A4 in human liver microsomes assessed as reduction in 1-Hydroxymidazolam formation using midazolam as substrate after 10 to 20 mins in presence of NADPH by LC-MS/MS analysis

in vivo [9] = settings: ICR, mouse, plasma, po, 30 mg/kg; remark: listed apart in the source
in vivo [10] = settings: ICR, mouse, plasma, iv, 3 mg/kg; remark: listed apart in the source
Description: Half life in ICR mouse plasma at 3 mg/kg, iv by LC/MS/MS analysis

in vivo [11] = settings: ICR, mouse, plasma, iv, 3 mg/kg; remark: listed apart in the source
Description: Volume of distribution at steady state in ICR mouse plasma at 3 mg/kg, iv by LC/MS/MS analysis

in vivo [12] = settings: ICR, mouse, po
Description: Toxicity in po dosed ICR mouse administered as single dose via oral gavage measured after 14 days

in vivo [13] = settings: ICR, mouse, plasma, po, 30 mg/kg; remark: listed apart in the source
Description: Half life in ICR mouse plasma at 30 mg/kg, po by LC/MS/MS analysis

HGC-27 = experiment: cells; type: functional, cell-based; settings: Homo sapiens, HGC-27, 96 h
Description: Cytotoxicity against human HGC27 cells after 96 hrs by MTT assay

[14] = biological target: Phosphatidylinositol 4,5-bisphosphate 3-kinase catalytic subunit alpha isoform (Homo sapiens, UniProt P42336); experiment: Inhibition of PI3Kalpha (unknown origin) using PIP2 as substrate by Kinase-Glo assay
Sequence of Phosphatidylinositol 4,5-bisphosphate 3-kinase catalytic subunit alpha isoform (P42336 whole entry, canonical isoform): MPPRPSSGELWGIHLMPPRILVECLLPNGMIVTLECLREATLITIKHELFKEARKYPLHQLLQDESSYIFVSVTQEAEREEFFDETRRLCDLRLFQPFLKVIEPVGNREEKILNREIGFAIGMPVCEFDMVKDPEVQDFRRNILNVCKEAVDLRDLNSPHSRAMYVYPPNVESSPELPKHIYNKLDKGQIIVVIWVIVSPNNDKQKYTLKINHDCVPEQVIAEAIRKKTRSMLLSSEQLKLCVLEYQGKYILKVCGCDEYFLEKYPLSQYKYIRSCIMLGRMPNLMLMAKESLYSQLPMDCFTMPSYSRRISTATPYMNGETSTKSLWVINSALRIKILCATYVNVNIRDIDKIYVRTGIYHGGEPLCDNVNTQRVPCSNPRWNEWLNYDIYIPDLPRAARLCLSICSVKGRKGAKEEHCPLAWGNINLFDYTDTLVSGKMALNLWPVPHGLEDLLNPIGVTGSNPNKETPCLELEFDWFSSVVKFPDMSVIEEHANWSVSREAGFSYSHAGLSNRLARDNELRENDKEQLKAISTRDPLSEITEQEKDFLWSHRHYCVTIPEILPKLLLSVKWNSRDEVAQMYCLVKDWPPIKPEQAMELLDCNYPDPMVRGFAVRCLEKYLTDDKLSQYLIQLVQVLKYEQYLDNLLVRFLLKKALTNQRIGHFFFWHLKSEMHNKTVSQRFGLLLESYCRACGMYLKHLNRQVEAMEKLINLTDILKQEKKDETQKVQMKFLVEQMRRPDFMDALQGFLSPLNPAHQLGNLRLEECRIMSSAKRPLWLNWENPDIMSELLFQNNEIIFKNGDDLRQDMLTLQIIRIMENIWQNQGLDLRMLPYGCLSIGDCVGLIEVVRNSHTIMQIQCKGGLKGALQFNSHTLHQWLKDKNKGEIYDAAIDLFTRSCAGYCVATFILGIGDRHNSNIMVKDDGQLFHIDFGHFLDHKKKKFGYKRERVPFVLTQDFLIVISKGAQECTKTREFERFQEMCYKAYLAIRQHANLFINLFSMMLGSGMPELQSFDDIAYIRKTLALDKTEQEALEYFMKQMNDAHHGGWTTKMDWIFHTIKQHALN

Cytochrome P450 2E1 = Cytochrome P450 2E1 (Homo sapiens, UniProt P05181)
Description: Inhibition of CYP2E1 in human liver microsomes assessed as reduction in 6-Hydroxychlorzoxazone formation using chlorzoxazone as substrate after 10 to 20 mins in presence of NADPH by LC-MS/MS analysis

in vivo [15] = settings: ICR, mouse, plasma, iv, 3 mg/kg; remark: listed apart in the source
Description: Clearance in ICR mouse plasma at 3 mg/kg, iv by LC/MS/MS analysis

SH-SY5Y = experiment: cells; type: functional, cell-based; settings: Homo sapiens, 96 h
Description: Cytotoxicity against human SH-SY5Y cells after 96 hrs by MTT assay

[16] = biological target: T2, Phosphatidylinositol 4,5-bisphosphate 3-kinase catalytic subunit delta isoform (Homo sapiens, UniProt O00329); experiment: Inhibition of PI3Kdelta (unknown origin) using PIP2 as substrate by ADP-Glo assay
T2 sequence (O00329 whole entry): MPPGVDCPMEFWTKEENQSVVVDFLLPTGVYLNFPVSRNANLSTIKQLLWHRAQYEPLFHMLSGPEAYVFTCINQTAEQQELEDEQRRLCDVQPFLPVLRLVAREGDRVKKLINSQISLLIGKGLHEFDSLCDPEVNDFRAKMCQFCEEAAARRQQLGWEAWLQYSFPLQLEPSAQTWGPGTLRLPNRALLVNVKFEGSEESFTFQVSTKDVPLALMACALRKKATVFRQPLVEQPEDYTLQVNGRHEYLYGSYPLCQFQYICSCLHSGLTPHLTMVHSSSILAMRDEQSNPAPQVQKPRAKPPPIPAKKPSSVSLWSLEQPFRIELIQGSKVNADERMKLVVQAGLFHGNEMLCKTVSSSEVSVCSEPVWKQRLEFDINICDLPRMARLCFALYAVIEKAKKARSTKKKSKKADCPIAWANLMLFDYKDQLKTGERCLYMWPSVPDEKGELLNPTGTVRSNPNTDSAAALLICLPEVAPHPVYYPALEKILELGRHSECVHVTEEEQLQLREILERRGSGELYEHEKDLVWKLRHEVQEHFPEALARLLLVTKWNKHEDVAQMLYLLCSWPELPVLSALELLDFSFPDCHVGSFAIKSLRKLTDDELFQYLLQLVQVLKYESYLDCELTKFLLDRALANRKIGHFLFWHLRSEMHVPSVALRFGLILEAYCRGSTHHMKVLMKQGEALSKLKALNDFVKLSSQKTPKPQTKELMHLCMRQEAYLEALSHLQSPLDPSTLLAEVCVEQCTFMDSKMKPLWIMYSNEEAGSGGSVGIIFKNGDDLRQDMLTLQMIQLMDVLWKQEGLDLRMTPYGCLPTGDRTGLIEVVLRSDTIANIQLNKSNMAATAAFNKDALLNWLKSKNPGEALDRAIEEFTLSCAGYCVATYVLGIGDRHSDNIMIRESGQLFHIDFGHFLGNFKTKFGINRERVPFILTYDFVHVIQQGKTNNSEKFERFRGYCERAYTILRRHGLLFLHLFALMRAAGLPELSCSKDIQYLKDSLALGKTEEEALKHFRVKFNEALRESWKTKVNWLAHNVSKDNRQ

U-87 MG = experiment: cells; type: functional, cell-based, U-87MG ATCC; settings: Homo sapiens, 96 h
Description: Cytotoxicity against human U87MG cells after 96 hrs by MTT assay

in vivo [17] = settings: ICR, mouse, plasma, po, 30 mg/kg; remark: listed apart in the source

Sequence of Phosphatidylinositol 4,5-bisphosphate 3-kinase catalytic subunit gamma isoform (P48736 whole entry, canonical isoform): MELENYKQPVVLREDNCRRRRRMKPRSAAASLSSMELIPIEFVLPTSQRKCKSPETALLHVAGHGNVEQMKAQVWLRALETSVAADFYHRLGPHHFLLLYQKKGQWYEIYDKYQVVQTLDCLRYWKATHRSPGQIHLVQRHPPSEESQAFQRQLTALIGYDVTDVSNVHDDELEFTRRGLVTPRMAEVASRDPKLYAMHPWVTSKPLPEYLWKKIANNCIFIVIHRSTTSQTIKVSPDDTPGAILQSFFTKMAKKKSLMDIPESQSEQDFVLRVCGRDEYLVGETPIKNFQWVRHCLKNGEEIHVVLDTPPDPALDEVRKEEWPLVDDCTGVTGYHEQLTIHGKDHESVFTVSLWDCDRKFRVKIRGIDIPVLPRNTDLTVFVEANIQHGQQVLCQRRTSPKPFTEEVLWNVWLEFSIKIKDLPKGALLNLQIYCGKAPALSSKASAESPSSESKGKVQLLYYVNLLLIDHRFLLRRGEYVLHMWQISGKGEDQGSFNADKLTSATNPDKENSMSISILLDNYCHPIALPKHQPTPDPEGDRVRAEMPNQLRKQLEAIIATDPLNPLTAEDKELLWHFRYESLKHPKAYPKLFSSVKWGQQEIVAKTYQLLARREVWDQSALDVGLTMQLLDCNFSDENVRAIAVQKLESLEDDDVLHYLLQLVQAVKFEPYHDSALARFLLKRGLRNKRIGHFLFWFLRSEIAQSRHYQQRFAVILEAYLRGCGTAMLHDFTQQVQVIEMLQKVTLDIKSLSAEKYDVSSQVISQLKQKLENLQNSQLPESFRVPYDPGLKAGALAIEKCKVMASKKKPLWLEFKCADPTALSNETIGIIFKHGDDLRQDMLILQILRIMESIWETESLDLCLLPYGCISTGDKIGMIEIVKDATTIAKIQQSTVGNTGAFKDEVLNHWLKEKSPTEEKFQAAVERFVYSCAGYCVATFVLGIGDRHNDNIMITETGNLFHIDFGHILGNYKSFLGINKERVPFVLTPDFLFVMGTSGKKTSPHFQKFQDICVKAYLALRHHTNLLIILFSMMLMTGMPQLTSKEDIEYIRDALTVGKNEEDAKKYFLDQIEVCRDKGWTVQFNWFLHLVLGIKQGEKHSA

SMILES	IC50 [1] [nM]	IC50 (PC-3) [nM]	IC50 [2] [nM]	IC50 (Cytochrome P450 2C9) [nM]	IC50 [3] [nM]	IC50 (MDA-MB-231) [nM]	IC50 (Cytochrome P450 2D6) [nM]	AUC(0-inf) (in vivo [4]) [ng·h/mL]	AUC(0-t) (in vivo [5]) [ng·h/mL]	bioavailability (in vivo [6]) [%]	Cmax (in vivo [7]) [ng/mL]	IC50 [8] [nM]	IC50 (Cytochrome P450 1A2) [nM]	IC50 (Cytochrome P450 3A4) [nM]	Cmax (in vivo [9]) [ng/mL]	half-life (in vivo [10]) [h]	Vd (in vivo [11]) [L/kg]	MTD at 336 h (in vivo [12]) [mg/kg]	half-life (in vivo [13]) [h]	IC50 (HGC-27) [nM]	further results
CNc1nc(C)c2cc(-c3cnc(OC)c(NS(=O)(=O)c4ccc(F)cc4F)c3)cc(OC3CCOCC3)c2n1	1.7	380	1.2	> 10000	> 10000	260	> 10000	3500	3480	44.4	7720	43	> 10000	> 10000	12800	0.62	0.763	> 40	4.25	16	IC50 [14]: 1.4 nM; IC50 (Cytochrome P450 2E1): > 10000 nM; clearance (in vivo [15]): 14.3 mL/min/kg; IC50 (SH-SY5Y): 510 nM; IC50 [16]: 0.35 nM; IC50 (U-87 MG): 250 nM; AUC(0-t) (in vivo [17]): 15500 ng·h/mL
CNc1nc(C)c2cc(-c3cnc(OC)c(NS(=O)(=O)c4ccc(F)cc4F)c3)cc(O[C@@H]3CCOC3)c2n1	0.93	240	1.1	> 10000	> 10000	480	> 10000	1460	1450	78.4	2620	56	> 10000	> 10000	5390	0.53	1.56	> 40	16.2	27	IC50 [14]: 0.96 nM; IC50 (Cytochrome P450 2E1): > 10000 nM; clearance (in vivo [15]): 34.5 mL/min/kg; IC50 (SH-SY5Y): 1300 nM; IC50 [16]: 0.37 nM; IC50 (U-87 MG): 400 nM; AUC(0-t) (in vivo [17]): 11400 ng·h/mL
COc1ncc(-c2cc(O[C@@H]3CCOC3)c3nc(N)nc(C)c3c2)cc1NS(=O)(=O)c1ccc(F)cc1F	1.2	280	0.4	> 10000	> 10000	300	> 10000	911	904	96.2	1580	9.9	> 10000	> 10000	8830	0.54	2.57	> 50	4.68	56	IC50 [14]: 1 nM; IC50 (Cytochrome P450 2E1): > 10000 nM; clearance (in vivo [15]): 54.9 mL/min/kg; IC50 (SH-SY5Y): 950 nM; IC50 [16]: 0.23 nM; IC50 (U-87 MG): 260 nM; AUC(0-t) (in vivo [17]): 8690 ng·h/mL
